Consider one molecule from article PMC9229949 (Pharmaceutics, 2022).

The test system of experiment [1] is P. falciparum 3D7 (CQ-susceptible) asexual blood stages. The experiment can be described thus: In vitro activity against asexual blood stages of P. falciparum, CQ-susceptible strain 3D7 (HRP2 ELISA). Format: cell-based. The conditions noted are these: Plasmodium falciparum, 3D7. Here is the method: (§1) The plates were incubated for 72 h at 37 °C in controlled atmosphere. After frozen and thawing the plates, hemolyzed cultures were homogenized by vortexing the plates. The antiparasitic activity was determined using the HRP2 ELISA-based assay Malaria Ag Celisa kit (ref KM2159, Cellabs PTY LDT, Brookvale, Australia). […] IC50s are expressed as means of three to five experiments.

The test system of experiment [2] is P. falciparum W2 (CQ-resistant) asexual blood stages. The experiment can be described thus: In vitro activity against asexual blood stages of P. falciparum, CQ-resistant strain W2 (HRP2 ELISA). To be noted: Plasmodium falciparum, W2. Format: cell-based. Here is the method:
as §1

Experiment [3] deals with β-hematin formation. Description: β-hematin formation inhibition by infrared spectroscopy. The class given is biochemical. More on the design: key: Yes indicates β-hematin inhibition; No indicates β-hematin formation. To be noted: 3:1 ratio of drug:hematin, qualitative by infrared. Here is the method: The conversion of hemin to β-hematin was determined by infrared (IR) spectroscopy as described by Egan et al.. […] Then, 0.3 mL of 0.1 M HCl and 1.7 mL of sodium acetate buffer ([…], pH 5) were added at the same temperature. […] The solid was dried and IR spectra were obtained using attenuated total reflection (ATR) using chloroquine as a positive control.

The subject of experiment [4] is β-hematin formation from Fe(II)PPIX (heme). Description: β-hematin inhibition activity, reducing conditions (R-BHIA, heme). The class given is biochemical. To be noted: 18 h incubation; median ± S.E.M. of three experiments; free bases; read-out: β-Hematin Inhibitory Activity (BHIA) R-BHIA (Heme), IC50. Here is the method: A hemin chloride (10 μL of 4 mM stock in 80% DMSO) aliquot was dispensed in a U bottom 96-well microplate, and then, 10 μL of 0.1 M NaOH (O-BHIA) or 4 mM reduced glutathione in PBS at pH 7.0 (R-BHIA) was added, and plates were sealed and incubated at 37 °C for 2 h. After this, 10 μL of the drug dissolved in DMSO was added and incubated for 2 h, followed by the addition of 180 μL of sodium acetate buffer (1.0 M, pH 5.2) and 10 μL of nonionic detergent IGEPAL-CA-630 solution in methanol (10 mg/mL). Plates were sealed and incubated at 37 °C for 18 h. […] The reaction was stopped by the addition of 50 μL of a sodium dodecyl sulfate solution (5.0% v/v in 0.1 M bicarbonate buffer at pH 9.0). Plates were centrifuged at 3700 rpm for 5 min, and 100 μL of supernatant was placed in a separate plate. […] Two independent experiments were performed, and each drug concentration was tested in quadruplicate concentrations.

Read-outs that look alike come from different tables or passages of the source.

Regarding `CCN(CC)Cc1cc(Nc2ccnc3cc(Cl)ccc23)ccc1O` [Amodiaquine (AQ), amodiaquine], the IC50 in experiment [1] (72 h incubation, HRP2 ELISA, mean ± S.E.M. of at least three experiments, AQ hydrochloride hydrate, PQ diphosphate, CQ diphosphate, read-out: P. falciparum, IC50 ± S.E.M., CQ-Susceptible 3D7) is 18 ± 1.6 nM; in experiment [1] (in vitro antiplasmodial activity, read-out: P. falciparum 3D7 (Cell Based Activity), IC50) it was 18 ± 2 nM; in experiment [2] (72 h incubation, HRP2 ELISA, mean ± S.E.M. of at least three experiments, AQ hydrochloride hydrate, PQ diphosphate, CQ diphosphate, read-out: P. falciparum, IC50 ± S.E.M., CQ-Resistant W2) it was 86.2 ± 9.4 nM; in experiment [2] (Figure 5 summary, read-out: CQ-resistant P.f.), 86 ± 9 nM; in experiment [4] it was 100000 ± 10000 nM. Also, the “β-Hematin Inhibitory Activity (BHIA) Determined by IR” value in experiment [3] was “Yes”.
